One may read the IC50 as the midpoint of a concentration-inhibition curve.

Holding throughout (assay type): cell-based
Assay [1] addresses T1, human sodium channels Nav 1.8 (Homo sapiens (Human), UniProt Q9Y5Y9). As to the kind of experiment: Automated whole-cell voltage-clamp (ScreenPatch 384P), Nav 1.8 sodium current, Protocol 2. The conditions noted are these: Protocol 2 (holding −100 mV, inactivation step −40 mV 8 s, 0.05 Hz); CHO cells expressing human Nav 1.8; read-out: Nav1.8 IC50. The procedure: (§1) Biological assays were performed on Chinese hamster ovary (CHO) cells expressing the human sodium channels Nav 1.8 and Nav 1.7 stably.
(§2) The experimental voltage-clamp protocol using the whole cell configuration was established on the automated ScreenPatch® 384P platform (SP384PE, Nanion Technologies, Livingston, NJ) and recording of the results was performed with a Nanion 384-well Patch Clamp chip (NPC) (Nanion Technologies, Livingston, NJ).
(§3) Compounds of Formula (I), were diluted in eight concentrations in the extracellular solution composed of physiological saline, buffered with HEPES (mM): NaCl, 137; KCl, 4; CaCl2, 3.8; MgCl2, 1; HEPES, 10; Glucose, 10; pH 7.4. The […], 50; CsF, 90; MgCl2, 5; EGTA, 5; HEPES, 10; pH 7.2. The duration of exposure of each compound with the cells expressing Nav 1.7 or Nav 1.8 was at least five minutes and the assays were performed at room temperature.
(§4) The measurements of the sodium currents of Nav 1.8 and Nav 1.7 were obtained using the voltage protocols described below: • Protocol 1: A holding voltage of −90 mV was established followed by a voltage phase of 200 ms to −120 mV, followed by a voltage step of 10 mV for 1 second for Nav 1.8 or 0 mV for Nav 1.7, followed by a step of −100 mV for 20 ms, followed by a step of 20 ms for 10 mV for Nav 1.8 or 0 mV for Nav 1.7 (TP1A) before returning to the holding voltage of −90 mV. • Protocol 2: A holding voltage of −100 mV was established followed by an inactivation voltage step at −40 mV for 8 seconds, followed by a −100 mV step for […], followed by a 20 ms step for 10 mV for Nav 1.8 or 0 mV for Nav 1.7 (TP1A) before returning to the holding voltage of −100 mV.
(§5) Protocols were repeated at a frequency of 0.1 Hz (Protocol 1) or 0.05 Hz (Protocol 2) and current amplitude was quantified over the TP1A phase log. The variation in the peak amplitude of the current was evaluated according to the Formula described below, after exposure of the cells expressing the channels, at each concentration of the different compounds:
(§6) [formula] • where |TP1A, basal, and |TP1A, molecule represent the entry peaks of sodium currents into TP1A prior to exposure to the compound and in the presence of the compound, respectively.
(§7) The decrease in peak current amplitude, after exposure of the cells to the compounds, was used to calculate the percent relative blocking of the channels relative to the positive control according to the Formula below:
(§8) [formula] • where % V and % CP represent the averages of the values of current inhibition with a vehicle (DMSO) and positive controls, respectively. The sodium currents of the positive control were considered as 100%.
(§9) [formula] • where [Test] represents the concentration of the evaluated molecule, IC50 is the concentration of the compound that generates half of the maximum inhibition, N is the Hill's coefficient and % Block′ is the percentage of the sodium channel current (Nav 1.8 and Nav 1.7) inhibited at each concentration of the evaluated molecule. Data were obtained by non-linear least squares regression with XLfit for Excel (Microsoft, Redmond, WA).
(§10) Compounds were tested in at least one assay to obtain the IC50 value.

Assay [2] concerns the target T2, human sodium channels Nav 1.7 (Homo sapiens (Human), UniProt Q15858). As to the kind of experiment: Automated whole-cell voltage-clamp (ScreenPatch 384P), Nav 1.7 sodium current, Protocol 2. Particulars: Protocol 2 (holding −100 mV, inactivation step −40 mV 8 s, 0.05 Hz); CHO cells expressing human Nav 1.7; read-out: Nav1.7 IC50. The procedure: as §1, §2, §3, §4, §5, §6, §7, §8, §9, §10

Assay [3] concerns the target T2, human sodium channels Nav 1.7. The assay is described as follows: Automated whole-cell voltage-clamp (ScreenPatch 384P), Nav 1.7 sodium current, Protocol 1. Particulars: Protocol 1 (holding −90 mV, 0.1 Hz); CHO cells expressing human Nav 1.7; room temperature; read-out: Nav1.7 IC50. The procedure: as §1, §2, §3, §4, §5, §6, §7, §8, §9, §10
For assay [4], the target named is T1, human sodium channels Nav 1.8. The assay is described as follows: Automated whole-cell voltage-clamp (ScreenPatch 384P), Nav 1.8 sodium current, Protocol 1. The conditions noted are these: Protocol 1 (holding −90 mV, 0.1 Hz); CHO cells expressing human Nav 1.8; room temperature; read-out: Nav1.8 IC50. Here is the method: as §1, §2, §3, §4, §5, §6, §7, §8, §9, §10

Bounds are passed on as bounds.

T1 sequence (Q9Y5Y9 whole entry): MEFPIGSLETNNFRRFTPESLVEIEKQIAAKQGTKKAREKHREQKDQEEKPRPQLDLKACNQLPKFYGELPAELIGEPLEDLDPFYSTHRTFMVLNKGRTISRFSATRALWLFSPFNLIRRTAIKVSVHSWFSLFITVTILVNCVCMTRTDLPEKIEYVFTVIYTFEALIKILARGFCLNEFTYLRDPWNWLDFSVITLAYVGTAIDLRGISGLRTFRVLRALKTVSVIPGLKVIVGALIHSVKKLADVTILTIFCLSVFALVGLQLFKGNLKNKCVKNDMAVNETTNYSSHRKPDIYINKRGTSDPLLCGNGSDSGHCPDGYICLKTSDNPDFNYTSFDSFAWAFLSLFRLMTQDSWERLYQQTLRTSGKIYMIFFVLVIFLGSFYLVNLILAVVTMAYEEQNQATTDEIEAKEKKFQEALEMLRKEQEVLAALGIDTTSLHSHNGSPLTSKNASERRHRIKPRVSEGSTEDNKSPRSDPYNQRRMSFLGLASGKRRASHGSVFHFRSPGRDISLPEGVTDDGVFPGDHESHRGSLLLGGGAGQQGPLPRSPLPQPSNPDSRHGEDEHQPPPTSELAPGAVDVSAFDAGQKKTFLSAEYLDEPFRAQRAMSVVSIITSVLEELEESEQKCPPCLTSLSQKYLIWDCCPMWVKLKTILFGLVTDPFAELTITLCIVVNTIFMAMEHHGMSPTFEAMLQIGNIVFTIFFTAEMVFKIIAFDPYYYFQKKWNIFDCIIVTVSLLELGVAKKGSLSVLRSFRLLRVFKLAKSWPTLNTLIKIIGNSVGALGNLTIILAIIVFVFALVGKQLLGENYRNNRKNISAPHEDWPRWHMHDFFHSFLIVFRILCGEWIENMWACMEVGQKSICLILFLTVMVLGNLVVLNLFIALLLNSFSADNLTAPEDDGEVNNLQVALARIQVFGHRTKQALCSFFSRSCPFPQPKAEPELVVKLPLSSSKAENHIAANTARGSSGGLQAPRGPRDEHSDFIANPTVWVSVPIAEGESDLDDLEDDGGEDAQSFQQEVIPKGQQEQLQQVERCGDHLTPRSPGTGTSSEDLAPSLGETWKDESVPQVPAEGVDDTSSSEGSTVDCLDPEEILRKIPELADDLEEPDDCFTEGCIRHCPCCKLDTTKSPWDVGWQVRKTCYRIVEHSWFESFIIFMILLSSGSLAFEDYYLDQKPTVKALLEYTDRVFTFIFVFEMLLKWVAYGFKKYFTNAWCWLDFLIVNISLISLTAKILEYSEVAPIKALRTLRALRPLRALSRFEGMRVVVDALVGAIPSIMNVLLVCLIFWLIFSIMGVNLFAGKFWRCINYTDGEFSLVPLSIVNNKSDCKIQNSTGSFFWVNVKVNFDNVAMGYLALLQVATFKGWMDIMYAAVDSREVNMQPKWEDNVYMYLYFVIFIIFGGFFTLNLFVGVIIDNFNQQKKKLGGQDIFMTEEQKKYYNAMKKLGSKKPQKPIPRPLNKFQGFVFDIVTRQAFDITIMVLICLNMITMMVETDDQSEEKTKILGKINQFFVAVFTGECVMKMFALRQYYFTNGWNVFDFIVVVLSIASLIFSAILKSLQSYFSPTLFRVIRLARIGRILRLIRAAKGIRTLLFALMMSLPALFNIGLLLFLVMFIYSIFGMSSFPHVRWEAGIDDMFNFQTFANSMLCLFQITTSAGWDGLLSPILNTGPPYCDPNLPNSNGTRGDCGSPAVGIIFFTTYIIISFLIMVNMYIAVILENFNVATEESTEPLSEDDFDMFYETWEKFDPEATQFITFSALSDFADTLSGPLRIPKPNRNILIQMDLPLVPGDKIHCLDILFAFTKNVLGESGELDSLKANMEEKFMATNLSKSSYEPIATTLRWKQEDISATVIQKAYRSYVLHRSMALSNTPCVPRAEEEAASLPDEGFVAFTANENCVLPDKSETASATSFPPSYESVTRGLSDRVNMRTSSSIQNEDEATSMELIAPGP
T2 sequence (Q15858 whole entry): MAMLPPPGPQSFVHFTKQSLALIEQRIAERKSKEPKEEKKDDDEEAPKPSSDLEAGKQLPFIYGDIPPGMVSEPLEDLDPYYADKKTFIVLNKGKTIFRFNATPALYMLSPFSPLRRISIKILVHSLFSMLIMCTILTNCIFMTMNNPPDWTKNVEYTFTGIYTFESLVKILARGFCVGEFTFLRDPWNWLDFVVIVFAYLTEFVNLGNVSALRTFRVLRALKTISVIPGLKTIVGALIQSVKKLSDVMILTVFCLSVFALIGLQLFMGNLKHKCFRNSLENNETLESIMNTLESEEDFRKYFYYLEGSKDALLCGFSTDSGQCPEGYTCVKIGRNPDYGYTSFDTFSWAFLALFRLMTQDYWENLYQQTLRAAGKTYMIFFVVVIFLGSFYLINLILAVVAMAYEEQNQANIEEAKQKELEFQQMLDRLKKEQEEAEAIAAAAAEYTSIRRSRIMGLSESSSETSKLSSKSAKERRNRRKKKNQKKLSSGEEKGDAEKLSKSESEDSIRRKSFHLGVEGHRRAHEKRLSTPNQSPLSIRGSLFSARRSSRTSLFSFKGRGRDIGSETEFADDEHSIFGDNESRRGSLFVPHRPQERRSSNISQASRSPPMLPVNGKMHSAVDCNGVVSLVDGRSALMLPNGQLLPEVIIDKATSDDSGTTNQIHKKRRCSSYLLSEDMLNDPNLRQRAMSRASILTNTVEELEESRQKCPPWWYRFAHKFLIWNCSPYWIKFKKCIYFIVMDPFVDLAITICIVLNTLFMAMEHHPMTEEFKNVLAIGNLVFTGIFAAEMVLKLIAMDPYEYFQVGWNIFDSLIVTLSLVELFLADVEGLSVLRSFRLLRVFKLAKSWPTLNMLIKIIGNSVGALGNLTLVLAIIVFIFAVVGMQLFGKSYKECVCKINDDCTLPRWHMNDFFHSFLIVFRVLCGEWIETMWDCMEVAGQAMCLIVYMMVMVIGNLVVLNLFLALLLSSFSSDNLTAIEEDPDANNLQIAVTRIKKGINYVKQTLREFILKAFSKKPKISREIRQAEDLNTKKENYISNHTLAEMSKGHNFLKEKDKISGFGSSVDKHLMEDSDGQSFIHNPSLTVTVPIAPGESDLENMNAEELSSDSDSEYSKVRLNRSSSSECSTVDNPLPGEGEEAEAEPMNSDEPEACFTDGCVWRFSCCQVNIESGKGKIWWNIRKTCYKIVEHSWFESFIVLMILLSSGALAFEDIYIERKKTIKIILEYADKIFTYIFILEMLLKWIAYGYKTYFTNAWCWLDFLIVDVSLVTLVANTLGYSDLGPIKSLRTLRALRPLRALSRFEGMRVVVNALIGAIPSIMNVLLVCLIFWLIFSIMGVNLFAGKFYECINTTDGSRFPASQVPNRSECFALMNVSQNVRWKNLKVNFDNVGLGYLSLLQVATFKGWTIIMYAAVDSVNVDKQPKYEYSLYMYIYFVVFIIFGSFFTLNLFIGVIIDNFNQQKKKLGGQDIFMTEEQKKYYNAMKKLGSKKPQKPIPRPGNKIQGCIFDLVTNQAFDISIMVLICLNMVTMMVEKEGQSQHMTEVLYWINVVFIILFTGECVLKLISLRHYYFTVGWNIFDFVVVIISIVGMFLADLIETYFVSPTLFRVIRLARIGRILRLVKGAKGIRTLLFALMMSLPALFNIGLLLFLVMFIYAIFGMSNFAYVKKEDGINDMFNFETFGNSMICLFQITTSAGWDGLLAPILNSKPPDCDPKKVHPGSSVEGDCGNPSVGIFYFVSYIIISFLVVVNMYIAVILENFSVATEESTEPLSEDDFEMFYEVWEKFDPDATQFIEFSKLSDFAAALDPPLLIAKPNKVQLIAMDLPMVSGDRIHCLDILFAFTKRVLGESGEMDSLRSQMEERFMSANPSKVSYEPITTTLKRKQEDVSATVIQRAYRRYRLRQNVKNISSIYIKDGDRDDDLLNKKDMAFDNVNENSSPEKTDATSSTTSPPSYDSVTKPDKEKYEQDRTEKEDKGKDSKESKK

Consider `COc1ccc(-c2cccc(C(=O)N/N=C/c3cc(OC)cc(OC)c3)n2)cc1` [Compound 14, (E)-N′-(3,5-dimethoxybenzylidene)-6-(4-methoxyphenyl) picolinohydrazide], for which the IC50 in assay [1] was determined as 754 nM; in assay [2], 1320 nM.

Regarding `CCCOc1ccc(-c2cccc(C(=O)N/N=C/c3cc(OC)cc(OC)c3)n2)cc1` [Compound 15, (E)-N′-(3,5-dimethoxybenzylidene)-6-(4-propoxyphenyl) picolinohydrazide], the figures for the half-maximal inhibitory concentration (IC50) in assay [1] and in assay [2] were 297 nM and 272 nM, respectively.

For `CCOc1ccc(-c2cccc(C(=O)N/N=C/c3cc(OC)cc(OC)c3)n2)cc1` [Compound 31, (E)-N′-(3,5-dimethoxybenzylidene)-6-(4-ethoxyphenyl) picolinohydrazide], the concentration for half-maximal inhibition (IC50) turned out to be 224 nM in assay [1] and 444 nM in assay [2].

Regarding `CCCCOc1ccc(-c2cc(C(=O)N/N=C/c3cc(OC)cc(OC)c3)ccn2)cc1` [Compound 38, (E)-2-(4-butoxyphenyl)-N′-(3,5-dimethoxybenzylidene) isonicotinohydrazide], the IC50 in assay [1] was over 1000 nM; in assay [2], over 10000 nM.

Take `COc1cc(/C=N/NC(=O)c2ccnc(-c3ccc(OC4CCCC4)cc3)c2)cc(OC)c1` [Compound 39, (E)-2-(4-(cyclopentyloxy)phenyl)-N′-(3,5-dimethoxybenzylidene) isonicotinohydrazide]: the half-maximal inhibitory concentration (IC50) was over 1000 nM in assay [1] and over 10000 nM in assay [2].

With `COc1cc(/C=N/NC(=O)c2cccc(-c3ccc(OC(F)(F)F)cc3)n2)cc(OC)c1` [Compound 40, (E)-N′-(3,5-dimethoxybenzylidene)-6-(4-(trifluoromethoxy)phenyl) picolinohydrazide], the IC50 was 140 nM in assay [1] and 123 nM in assay [2].

Regarding `CCCCOc1ccc(-c2cccc(C(=O)N/N=C/c3cc(OC)cc(OC)c3)n2)cc1` [Compound 41, (E)-6-(4-butoxyphenyl)-N′-(3,5-dimethoxybenzylidene) picolinohydrazide], the half-maximal inhibitory concentration (IC50) is over 1000 nM in assay [1] and 1200 nM in assay [2].

With `COc1cc(/C=N/NC(=O)c2ccnc(-c3ccc(OC(C)C)cc3)n2)cc(OC)c1` [Compound 54, (E)-N′-(3,5-dimethoxybenzylidene)-2-(4-isopropoxyphenyl)pyrimidine-4-carbohydrazide], the values for the IC50 in assay [1] and in assay [2] were 313 nM and 137 nM, respectively.

For the compound `COc1cc(/C=N/NC(=O)c2nccc(-c3ccc(Cl)cc3)n2)cc(OC)c1` [Compound 60, (E)-4-(4-chlorophenyl)-N′-(3,5-dimethoxybenzylidene)pyrimidine-2-carbohydrazide], the IC50 was 5040 nM in assay [1] and 5150 nM in assay [2].

Consider `CCOc1ccc(-c2ccnc(C(=O)N/N=C/c3cc(OC)cc(OC)c3)n2)cc1` [Compound 61, (E)-N′-(3,5-dimethoxybenzylidene)-4-(4-ethoxyphenyl)pyrimidine-2-carbohydrazide], for which the figures for the half-inhibitory concentration (IC50) in assay [1] and in assay [2] were 183 nM and 651 nM, respectively.

As for `COc1cc(/C=N/NC(=O)c2nccc(-c3ccc(OC(C)C)cc3)n2)cc(OC)c1` [Compound 62, (E)-N′-(3,5-dimethoxybenzylidene)-4-(4-isopropoxyphenyl)pyrimidine-2-carbohydrazide], the values for the concentration for half-maximal inhibition (IC50) in assay [1] and in assay [2] were 462 nM and 302 nM, respectively.

On to `COc1cc(/C=N/NC(=O)c2nccc(-c3ccc(OC4CCCC4)cc3)n2)cc(OC)c1` [Compound 63, (E)-4-(4-(cyclopentyloxy)phenyl)-N′-(3,5-dimethoxybenzylidene)pyrimidine-2-carbohydrazide], for which the IC50 in assay [1] is over 1000 nM; in assay [2] it was 306 nM.

For `COc1cc(/C=N/NC(=O)c2nccc(-c3ccc(OC(F)(F)F)cc3)n2)cc(OC)c1` [Compound 64, (E)-N′-(3,5-dimethoxybenzylidene)-4-(4-(trifluoromethoxy)phenyl) pyrimidine-2-carbohydrazide], the IC50 in assay [1] stood at 384 nM; in assay [2], 173 nM.

As for `COc1ccc(-c2ccnc(C(=O)N/N=C/c3cc(OC)cc(OC)c3)n2)cc1` [Compound 65, (E)-N′-(3,5-dimethoxybenzylidene)-4-(4-methoxyphenyl)pyrimidine-2-carbohydrazide], the IC50 in assay [1] is over 1000 nM; in assay [2], 6440 nM.

On to `CCCOc1ccc(-c2ccnc(C(=O)N/N=C/c3cc(OC)cc(OC)c3)n2)cc1` [Compound 66, (E)-N′-(3,5-dimethoxybenzylidene)-4-(4-propoxyphenyl)pyrimidine-2-carbohydrazide], for which the concentration for half-maximal inhibition (IC50) in assay [1] is over 1000 nM; in assay [2] it was 569 nM.

`CCOc1ccc(-c2cc(F)cc(C(=O)N/N=C/c3cc(OC)cc(OC)c3)n2)cc1` [Compound 68, (E)-N′-(3,5-dimethoxybenzylidene)-6-(4-ethoxyphenyl)-4-fluoropicolinohydrazide]: the half-inhibitory concentration (IC50) in assay [1] is 636 nM; in assay [2], over 10000 nM.

For `CCOc1ccc(-c2cc(C(F)(F)F)cc(C(=O)N/N=C/c3cc(OC)cc(OC)c3)n2)cc1` [Compound 69], the half-inhibitory concentration (IC50) in assay [1] is over 1000 nM; in assay [2] it was over 10000 nM.

Consider `COc1ccc(-c2ccc(C(=O)N/N=C/c3cc(OC)cc(OC)c3)o2)cc1` [Compound 71, (E)-N′-(3,5-dimethoxybenzylidene)-5-(4-methoxyphenyl) furan-2-carbohydrazide], for which the half-inhibitory concentration (IC50) was over 1000 nM in assay [1] and over 10000 nM in assay [2].

Turning to `COc1ccc(-c2ccc(C(=O)N/N=C/c3cc(OC)cc(OC)c3)s2)cc1` [Compound 72, (E)-N′-(3,5-dimethoxybenzylidene)-5-(4-methoxyphenyl)thiophene-2-carbohydrazide], the half-inhibitory concentration (IC50) is over 1000 nM in assay [1] and over 10000 nM in assay [2].

On to `COc1ccc(-c2ncc(C(=O)N/N=C/c3cc(OC)cc(OC)c3)o2)cc1` [Compound 73, (E)-N′-(3,5-dimethoxybenzylidene)-2-(4-methoxyphenyl) oxazole-5-carbohydrazide], for which the figures for the IC50 in assay [1] and in assay [2] were over 1000 nM and over 10000 nM, respectively.

Take `COc1ccc(-c2nc(C(=O)N/N=C/c3cc(OC)cc(OC)c3)co2)cc1` [Compound 74, (E)-N′-(3,5-dimethoxybenzylidene)-2-(4-methoxyphenol) oxazole-4-carbohydrazide]: the 50% inhibitory concentration (IC50) in assay [1] is over 1000 nM; in assay [2], over 10000 nM.

For the compound `COc1ccc(-c2noc(C(=O)N/N=C/c3cc(OC)cc(OC)c3)n2)cc1` [Compound 75, (E)-N′-(3,5-dimethoxybenzylidene)-3-(4-methoxyphenol)-1,2,4-oxadiazole-5-carbohydrazide], the concentration for half-maximal inhibition (IC50) is over 1000 nM in assay [1] and over 10000 nM in assay [2].

Consider `COc1ccc(-c2nc(C(=O)N/N=C/c3cc(OC)cc(OC)c3)cs2)cc1` [Compound 76, (E)-N′-(3,5-dimethoxybenzylidene)-2-(4-methoxyphenyl) thiazole-4-carbohydrazide], for which the half-inhibitory concentration (IC50) was over 1000 nM in assay [1] and over 10000 nM in assay [2].

For the compound `CCOc1ccc(-c2cccc(C(=O)N(C)/N=C/c3cc(OC)cc(OC)c3)n2)cc1` [Compound 79, (E)-N′-(3,5-dimethoxybenzylidene)-6-(4-ethoxyphenyl)-N′-methylpicolinohydrazide], the half-maximal inhibitory concentration (IC50) in assay [3] and in assay [4] was over 10000 nM throughout.

The record behind these values is patent publication US20240335420A1, “N-ACYLHYDRAZONE COMPOUNDS CAPABLE OF INHIBITING NAV 1.7 AND/OR NAV 1.8, PROCESSES FOR THE PREPARATION THEREOF, COMPOSITIONS, USES, METHODS FOR TREATMENT USING SAME AND KITS” (EUROFARMA LABORATÓRIOS S.A., priority 2021, published 2024).
